From the supplement of paper PMC10307832

Assays:
Experiment in all cases: relative viability (nuclei count vs DMSO), 5 days (fraction); higher = more cells survive
[1] = compound: CCOC(=O)CCNc1cc(N2CCc3ccccc3CC2)nc(-c2ccccn2)n1 [GSK-J4] + Cc1nc(NC(=O)N2CCC[C@H]2C(N)=O)sc1-c1ccnc(C(C)(C)C(F)(F)F)c1 [Alpelisib] (partner 2 µM)
How it was run: (§1)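 Lung cancer cell lines were seeded in 1536-well plates and dosed by pin tool the next day, with either a single drug or a fixed anchor-drug dose combined with five library-drug doses (not always all listed) spaced in √10 steps. Five days later, one step fixed the cells and stained their nuclei (final 0.05% Triton X-100, 1% formaldehyde, 1 ug/ml Hoechst), and nuclei were counted on 4× images. Relative viability is the nuclei count in treated wells divided by the count in vehicle wells, and each value is the median of duplicate plates.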

[2] = compound: CCOC(=O)CCNc1cc(N2CCc3ccccc3CC2)nc(-c2ccccn2)n1 [GSK-J4] + Cc1nc(Nc2ncc(C(=O)Nc3c(C)cccc3Cl)s2)cc(N2CCN(CCO)CC2)n1 [Dasatinib] (partner 0.075 µM)
How it was run: as §1

[3] = compound: CN1CCC(CC1)OC2=CC(=C(C=C2)NC3=NC=C4C(=N3)N(C(=O)N4C)C5CCCC5)OC [AZ3146] + COc1cc2c(Oc3ccc(NC(=O)C4(C(=O)Nc5ccc(F)cc5)CC4)cc3F)ccnc2cc1OCCCN1CCOCC1 [Foretinib] (partner 0.25 µM)
How it was run: as §1

[4] = compound: CN1CCC(CC1)OC2=CC(=C(C=C2)NC3=NC=C4C(=N3)N(C(=O)N4C)C5CCCC5)OC [AZ3146] + C[C@@H](Oc1cc(-c2cnn(C3CCNCC3)c2)cnc1N)c1c(Cl)ccc(F)c1Cl [Crizotinib] (partner 1 µM)
How it was run: as §1

| Cell Line | relative viability ([1]; first compound 0.5 µM) | relative viability ([1]; first compound 1.581 µM) | relative viability ([1]; first compound 5 µM) | relative viability ([1]; first compound 50 µM) | relative viability ([2]; first compound 0.5 µM) | relative viability ([2]; first compound 1.581 µM) | relative viability ([2]; first compound 5 µM) | relative viability ([2]; first compound 15.81 µM) | relative viability ([2]; first compound 50 µM) | relative viability ([3]; first compound 0.08 µM) | relative viability ([3]; first compound 0.253 µM) | relative viability ([3]; first compound 0.8 µM) | relative viability ([3]; first compound 2.53 µM) | relative viability ([3]; first compound 8 µM) | relative viability ([4]; first compound 0.253 µM) | relative viability ([4]; first compound 0.8 µM) | relative viability ([4]; first compound 2.53 µM) | relative viability ([4]; first compound 8 µM) | relative viability ([1]; first compound 15.81 µM) | relative viability ([4]; first compound 0.08 µM) |
| --- | --- | --- | --- | --- | --- | --- | --- | --- | --- | --- | --- | --- | --- | --- | --- | --- | --- | --- | --- | --- |
| HCC-78 | 0.403 | 0.31 | 0.501 | 0.316 | 0.562 | 0.374 | 0.651 | 0.3 | 0.319 | 0.51 | 0.547 | 0.534 | 0.601 | 0.58 | 0.326 | 0.329 | 0.387 | 0.361 |  |  |
| HCC-366 | 0.391 | 0.25 |  | 0.365 | 0.597 | 0.537 |  | 0.415 | 0.501 | 0.791 | 0.924 | 0.908 | 0.974 | 0.178 | 0.695 | 0.246 | 0.192 | 0.0532 | 0.305 | 0.514 |
| HCC-827 | 0.981 | 1 | 1.02 | 0.939 | 0.335 | 0.356 | 0.435 | 0.312 | 0.289 | 1.08 | 1 | 1.03 | 1.03 | 1.09 | 0.859 | 1.04 | 0.913 | 0.911 | 0.915 | 0.943 |
| HOP-62 | 0.956 | 1.01 | 1.12 | 0.859 | 0.625 | 0.639 | 0.269 | 0.567 | 0.525 | 1.06 | 1.16 | 1.01 | 1.11 | 1.08 | 0.955 | 0.917 | 1.09 | 0.601 | 0.912 | 0.946 |
| IA-LM | 0.77 | 0.693 | 0.887 | 0.149 |  |  |  |  |  | 1.21 | 1.36 | 1.33 | 1.08 | 0.285 | 0.654 | 0.898 | 0.615 | 0.115 | 0.693 |  |
| LC-2-ad | 0.725 | 0.764 | 0.857 | 0.87 | 0.689 | 0.429 | 0.535 | 0.44 | 0.351 | 0.735 | 0.905 | 1.06 | 0.935 | 0.878 | 0.511 | 0.481 | 0.494 | 0.321 | 0.877 | 0.365 |
| LCLC-97TM1 |  |  | 0.271 | 0.164 | 0.596 | 0.724 | 0.951 | 0.825 | 0.555 | 0.936 | 0.96 | 0.879 | 0.942 | 0.806 |  | 0.485 | 0.352 | 0.304 | 0.24 |  |
| LCLC-103H | 0.934 | 0.859 | 1.09 | 1.11 | 0.406 | 0.428 | 0.256 | 0.281 | 0.45 | 0.749 | 0.81 | 0.749 | 0.966 | 0.657 | 1.08 | 0.984 | 1.08 | 1.11 | 0.986 | 0.987 |
| LK-2 | 1.04 | 1.08 | 1.41 | 1.23 | 0.354 |  | 0.267 | 0.229 | 0.241 | 0.934 | 1.21 | 1.7 | 1.46 | 1.3 |  |  | 0.228 | 0.219 | 1.3 | 0.229 |
| LOU-NH91 | 0.743 | 0.689 | 0.649 | 0.672 | 0.65 | 0.612 | 0.432 | 0.506 | 0.631 | 0.967 | 0.902 | 1.01 | 0.931 | 0.948 | 0.699 | 0.746 | 0.71 | 0.75 | 0.688 | 0.749 |
| LU99A | 0.448 | 0.494 | 0.535 | 0.322 | 0.441 | 0.582 |  | 0.457 | 0.374 | 0.699 | 0.87 | 0.782 | 0.849 | 0.869 | 0.584 | 0.555 | 0.555 | 0.452 | 0.498 | 0.502 |
| NCI-H522 |  |  |  |  | 0.83 | 0.803 | 0.624 | 0.671 | 0.664 |  |  |  |  |  |  |  |  |  |  |  |
| NCI-H1299 | 1.01 | 0.899 | 0.975 | 1.04 |  |  |  |  |  | 1.06 | 1.1 | 1.07 | 1.12 | 0.679 | 0.961 | 0.952 | 0.636 | 0.511 | 1.04 | 0.964 |
| NCI-H1395 | 1.03 | 0.88 | 0.845 | 0.821 | 0.402 | 0.428 | 0.382 | 0.355 | 0.375 | 0.989 | 0.962 | 0.949 | 1.07 | 1.02 |  |  |  |  | 1.14 |  |
| NCI-H1623 |  |  |  |  | 0.562 | 0.576 | 0.629 | 0.38 | 0.51 | 0.797 | 0.757 | 0.855 | 0.955 | 0.899 |  |  |  |  |  |  |
| NCI-H1650 |  |  |  |  | 0.34 | 0.261 | 0.372 | 0.283 | 0.314 | 1.29 | 1.49 | 0.879 | 1 | 0.604 | 0.95 | 0.84 | 0.95 | 0.489 |  | 0.933 |
| NCI-H1703 | 0.286 | 0.461 | 0.289 | 0.363 |  |  |  |  |  | 0.285 | 0.351 | 0.329 | 0.343 | 0.272 | 0.59 | 0.384 | 0.365 | 0.241 | 0.372 | 0.447 |
| NCI-H1792 | 0.708 | 0.664 | 0.734 | 0.837 | 0.805 |  | 0.817 | 0.529 | 0.809 |  |  |  |  |  | 1.07 | 1.01 | 0.797 | 1 | 0.575 | 0.834 |
| NCI-H1793 | 0.79 | 0.737 | 0.715 | 0.275 | 0.433 | 0.365 | 0.239 | 0.358 | 0.414 | 0.672 | 0.699 | 0.755 | 0.686 | 0.316 |  |  |  |  | 0.602 |  |
| NCI-H2342 |  |  |  |  | 0.314 | 0.299 | 0.33 | 0.365 | 0.313 | 0.928 | 1.03 | 1.16 | 1.01 | 1.07 |  |  |  |  |  |  |
| SW 900 |  |  |  |  | 0.603 | 0.496 | 0.426 | 0.568 | 0.327 | 0.899 | 0.761 | 0.811 | 0.893 | 0.759 |  |  |  |  |  |  |
